Work on CCOC(=O)c1ccc(/N=N/N(C)C)cc1 yielded a logP of 3.66. Molecule CCCCCN(C)N=Nc1ccc(C(=O)O)cc1 has a logP of 1.46. With CN(CC(F)(F)F)N=Nc1ccc(C(N)=O)cc1 the logP was 1.86. With CCN(CC)/N=N/c1ccc(C(N)=O)cc1 the logP was 2.26. Molecule COC(=O)c1cccc(/N=N/N(C)C)c1 has a logP of 3.12. In the case of CCNN=Nc1ccc(C(N)=O)cc1, the logP was 1.19. CN(C)N=Nc1ccc(S(=O)(=O)CCO)cc1 gave a logP of 1.15. CCOC(=O)c1ccc(N=NN(C)CCO)cc1 gave a logP of 2.66. CCCCCN(C)N=Nc1ccc(S(=O)(=O)Nc2ccccn2)cc1 gave a logP of 2.16. Work on COC(=O)c1ccccc1/N=N/N(C)C yielded a logP of 2.51. For CN(C)/N=N/c1ccccc1C(=O)O, the logP was -0.28. CCCN(C)N=Nc1ccc(C(=O)O)cc1 gave a logP of 0.46. Work on COC(=O)c1ccc(/N=N/N(C)C)cc1 yielded a logP of 3.22. CCN(C)/N=N/c1ccc(C(N)=O)cc1 showed a logP of 1.69. CN(C)/N=N/c1ccc([N+](=O)[O-])cc1 gave a logP of 3.25. CCN(CC)N=Nc1ccccc1C(N)=O gave a logP of 2.96. COc1ccc(/N=N/N(C)C)cc1 showed a logP of 2.99. CN(C)/N=N/c1ccc(C(F)(F)F)cc1 showed a logP of 4. CC(C)N(N=Nc1ccc(C(N)=O)cc1)C(C)C showed a logP of 3. CN(C)N=Nc1ccc(S(=O)(=O)Nc2ccno2)cc1 showed a logP of 0.42. With CCN(C)/N=N/c1ccccc1C(N)=O the logP was 2.59. In the case of CCCCCN(C)N=Nc1ccc(C(N)=O)cc1, the logP was 3.18. CN(C)/N=N/c1ccc(S(C)(=O)=O)cc1 gave a logP of 1.59. For CCCCN(C)N=Nc1ccc(C(=O)O)cc1, the logP was 0.96. Work on CC(=O)N(C)N=Nc1ccc(C(N)=O)cc1 yielded a logP of 1.37. For CCN(CC)N=Nc1ccccc1C(=O)O, the logP was 1.49. CCCCN(C)/N=N/c1ccc(C(N)=O)cc1 showed a logP of 2.68. Work on CCCC(C)N(C)N=Nc1ccc(C(=O)O)cc1 (stereo not given) yielded a logP of 1.35. In the case of CCCCCN(C)N=Nc1ccc(S(=O)(=O)Nc2nccc(C)n2)cc1, the logP was 2.34. With CN(C)/N=N/c1ccc(S(N)(=O)=O)cc1 the logP was 0.85. CN(C)/N=N/c1cccc(C(=O)O)c1 gave a logP of -0.38. Molecule C=CCN(CC=C)N=Nc1ccccc1C(=O)O has a logP of 0.62. For CNN=Nc1ccc(C(N)=O)cc1, the logP was 0.48. Work on CCCN(C)N=Nc1ccc(C(N)=O)cc1 yielded a logP of 2.17. In the case of CN(C)/N=N/c1cccc(C(N)=O)c1, the logP was 1.3. CN(Cc1ccccc1)N=Nc1ccc(C(N)=O)cc1 gave a logP of 2.77. With CCN(CC)N=Nc1ccc(S(C)(=O)=O)cc1 the logP was 2.6. CCCCN(C)/N=N/c1ccccc1C(N)=O showed a logP of 3.52. Molecule CCN(CC)N=Nc1cc([N+](=O)[O-])cc([N+](=O)[O-])c1 has a logP of 4.69. CCN(C)N=Nc1ccccc1C(=O)O gave a logP of 0.11.

Source: the SangsterLogP compilation
